# Data from patent publication US20060293307A1, “Oxazolidinone derivatives as antimicrobials” (priority 2002, published 2006).
# Read-outs that look alike come from different tables or passages of the source.
# How the values were obtained:
# Test in all cases: MIC, agar incorporation method
# [1] = test system: S. pneumoniae 1251; format: cell-based, Streptococcus pneumoniae
# [2] = test system: Moraxella M1; format: cell-based
# [3] = test system: E. faecium 6A (VRE); format: cell-based, Enterococcus faecium
# [4] = test system: S. pneumoniae AB 29; format: cell-based, Streptococcus pneumoniae
# [5] = test system: S. pneumoniae AB 21; format: cell-based, Streptococcus pneumoniae
# [6] = test system: S. pneumoniae 1275; format: cell-based, Streptococcus pneumoniae
# [7] = test system: Salmonella 205; format: cell-based; conditions: S. No. 26, Salmonella 205
# Method in brief: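 Doubling dilutions of compound in DMSO were incorporated into Mueller-Hinton agar; 10^4 CFU/spot inoculated from 0.5 McFarland suspensions and incubated 18 h (24 h for MRSN studies). MIC = lowest concentration without visible growth; valid only when ATCC reference strains gave in-range MICs.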
# [8] = test system: S. epidermidis (MRSE)32965; format: cell-based, Staphylococcus epidermidis
# [9] = test system: S pneumoniae 1294.; format: cell-based, Streptococcus pneumoniae
# [10] = test system: S. aureus ATCC29213; format: cell-based, Staphylococcus aureus
# [11] = test system: S. aureus (MRSA) 15187; format: cell-based, Staphylococcus aureus
# [12] = test system: S. pneumoniae AB 25; format: cell-based, Streptococcus pneumoniae
# [13] = test system: E. durans 581; format: cell-based
# [14] = test system: (MRSA) 562; format: cell-based, Staphylococcus aureus
# [15] = test system: S. pneumoniae AB 30; format: cell-based, Streptococcus pneumoniae
# [16] = test system: S. pneumoniae AB 16; format: cell-based, Streptococcus pneumoniae
# [17] = test system: S. pneumoniae 217; format: cell-based, Streptococcus pneumoniae
# [18] = test system: S. pyogenes 20361; format: cell-based, Streptococcus pyogenes
# [19] = test system: S. epidermidis ATCC 12228; format: cell-based, Staphylococcus epidermidis
# [20] = test system: S. pneumoniae AB 22; format: cell-based, Streptococcus pneumoniae
# [21] = test system: E. faecalis 29212; format: cell-based
# [22] = test system: S. pneumoniae AB 34; format: cell-based, Streptococcus pneumoniae
# [23] = test system: Moraxella cata. M2; format: cell-based
# [24] = test system: S. epidermidis 823; format: cell-based, Staphylococcus epidermidis
# [25] = test system: S. pneumoniae AB 10; format: cell-based, Streptococcus pneumoniae
# [26] = test system: E. coli 25922; format: cell-based
# [27] = test system: S. pneumoniae AB-2; format: cell-based, Streptococcus pneumoniae
# [28] = test system: Serratia marcescens 12999; format: cell-based
# [29] = test system: P. aeruginosa ATCC 27853; format: cell-based
# [30] = test system: S. pneumoniae AB4; format: cell-based, Streptococcus pneumoniae
# [31] = test system: S. pneumoniae ATCC 6303; format: cell-based, Streptococcus pneumoniae
# [32] = test system: S. epidermidis (MRSE) 23760; format: cell-based, Staphylococcus epidermidis
# [33] = S. No. 13, S. epidermidis (MRSE)32965
# [34] = S. No. 4, S. aureus (MRSA) 15187
# [35] = S. No. 10, S. epidermidis ATCC 12228
# [36] = S. No. 29, Serratia marcescens 12999
# [37] = S. No. 28, P. aeruginosa ATCC 27853
# [38] = S. No. 50, S. pneumoniae ATCC 6303
# [39] = S. No. 11, S. epidermidis (MRSE) 23760
# [40] = Staphylococcus epidermidis, MRSE
compound,measurement,setting,value
"CC(=O)NC[C@H]1CN(c2ccc(N3CCN(c4ccc([N+](=O)[O-])s4)CC3)cc2)C(=O)O1 [Compound No. 6, (S)—N-[[3-[4-[N-1-(5-nitro-2-thienyl)piperazinyl]-phenyl]-2-oxo-5-oxazolidinyl]-methyl]-acetamide]",MIC,"[1]; S. No. 54, S. pneumoniae 1251",0.25 µg/mL
same,MIC,"[2]; S. No. 58, Moraxella M1",>16 µg/mL
same,MIC,"[3]; S. No. 21, E. faecium 6A (VRE)",1 µg/mL
same,MIC,"[4]; S. No. 46, S. pneumoniae AB 29",0.5 µg/mL
same,MIC,"[5]; S. No. 41, S. pneumoniae AB 21",0.5 µg/mL
same,MIC,"[6]; S. No. 57, S. pneumoniae 1275",0.25 µg/mL
same,MIC,[7],>16 µg/mL
same,MIC,[8]; [33],1 µg/mL
same,MIC,"[9]; S. No. 55, S pneumoniae 1294.",0.5 µg/mL
same,MIC,"[10]; S. No. 2, S. aureus ATCC29213",2 µg/mL
same,MIC,[11]; [34],2 µg/mL
same,MIC,"[12]; S. No. 45, S. pneumoniae AB 25",0.5 µg/mL
same,MIC,"[13]; S. No. 24, E. durans 581",1 µg/mL
same,MIC,"[14]; S. No. 8, (MRSA) 562",1 µg/mL
same,MIC,"[15]; S. No. 47, S. pneumoniae AB 30",0.5 µg/mL
same,MIC,"[16]; S. No. 39, S. pneumoniae AB 16",0.5 µg/mL
same,MIC,"[17]; S. No. 38, S. pneumoniae 217",0.25 µg/mL
same,MIC,"[18]; S. No. 53, S. pyogenes 20361",0.5 µg/mL
same,MIC,[19]; [35],1 µg/mL
same,MIC,"[20]; S. No. 42, S. pneumoniae AB 22",0.25 µg/mL
same,MIC,"[21]; S. No. 17, E. faecalis 29212",1 µg/mL
same,MIC,"[22]; S. No. 49, S. pneumoniae AB 34",0.5 µg/mL
same,MIC,"[23]; S. No. 59, Moraxella cata. M2",8 µg/mL
same,MIC,"[24]; S. No. 12, S. epidermidis 823",1 µg/mL
same,MIC,"[25]; S. No. 35, S. pneumoniae AB 10",0.25 µg/mL
same,MIC,"[26]; S. No. 25, E. coli 25922",>16 µg/mL
same,MIC,"[27]; S. No. 31, S. pneumoniae AB-2",0.25 µg/mL
same,MIC,[28]; [36],>16 µg/mL
same,MIC,[29]; [37],>16 µg/mL
same,MIC,"[30]; S. No. 33, S. pneumoniae AB4",0.25 µg/mL
same,MIC,[31]; [38],0.5 µg/mL
same,MIC,[32]; [39],1 µg/mL
"C[C@H](Cl)C(=O)NCC1CN(c2ccc(N3CCN(c4ccc([N+](=O)[O-])s4)CC3)c(F)c2)C(=O)O1 (stereo partly drawn) [Compound No. 7, (S)—N-[[3-[3-Fluoro-4-[N-1-{4-(5-nitro-2-thienyl)piperazinyl}]-phenyl]-2-oxo-5-oxazolidinyl]-methyl]-2-chloro-propionamide]",MIC,"[1]; S. No. 54, S. pneumoniae 1251",1 µg/mL
same,MIC,"[2]; S. No. 58, Moraxella M1",>8 µg/mL
same,MIC,"[3]; S. No. 21, E. faecium 6A (VRE)",>8 µg/mL
same,MIC,"[4]; S. No. 46, S. pneumoniae AB 29",0.5 µg/mL
same,MIC,"[5]; S. No. 41, S. pneumoniae AB 21",1 µg/mL
same,MIC,"[6]; S. No. 57, S. pneumoniae 1275",0.25 µg/mL
same,MIC,[7],>8 µg/mL
same,MIC,[8]; [33],2 µg/mL
same,MIC,"[9]; S. No. 55, S pneumoniae 1294.",2 µg/mL
same,MIC,"[10]; S. No. 2, S. aureus ATCC29213",>8 µg/mL
same,MIC,[11]; [34],>8 µg/mL
same,MIC,"[12]; S. No. 45, S. pneumoniae AB 25",0.5 µg/mL
same,MIC,"[13]; S. No. 24, E. durans 581",8 µg/mL
same,MIC,"[14]; S. No. 8, (MRSA) 562",>8 µg/mL
same,MIC,"[15]; S. No. 47, S. pneumoniae AB 30",0.5 µg/mL
same,MIC,"[16]; S. No. 39, S. pneumoniae AB 16",1 µg/mL
same,MIC,"[17]; S. No. 38, S. pneumoniae 217",1 µg/mL
same,MIC,"[18]; S. No. 53, S. pyogenes 20361",2 µg/mL
same,MIC,[19]; [35],1 µg/mL
same,MIC,"[20]; S. No. 42, S. pneumoniae AB 22",1 µg/mL
same,MIC,"[21]; S. No. 17, E. faecalis 29212",>8 µg/mL
same,MIC,"[22]; S. No. 49, S. pneumoniae AB 34",4 µg/mL
same,MIC,"[23]; S. No. 59, Moraxella cata. M2",>8 µg/mL
same,MIC,"[24]; S. No. 12, S. epidermidis 823",2 µg/mL
same,MIC,"[25]; S. No. 35, S. pneumoniae AB 10",0.5 µg/mL
same,MIC,"[26]; S. No. 25, E. coli 25922",>8 µg/mL
same,MIC,"[27]; S. No. 31, S. pneumoniae AB-2",0.5 µg/mL
same,MIC,[28]; [36],>8 µg/mL
same,MIC,[29]; [37],>8 µg/mL
same,MIC,"[30]; S. No. 33, S. pneumoniae AB4",0.5 µg/mL
same,MIC,[31]; [38],0.5 µg/mL
same,MIC,[32]; [39],4 µg/mL
"CC(=O)NC[C@H]1CN(c2ccc(N3CCOCC3)c(F)c2)C(=O)O1 [Linezolid, reference compound]",MIC,"[1]; Streptococcus pneumoniae, 1251",1 µg/mL
same,MIC,"[2]; Moraxella, M1",4 µg/mL
same,MIC,"[3]; Enterococcus faecium, VRE",2 µg/mL
same,MIC,"[4]; Streptococcus pneumoniae, AB29",1 µg/mL
same,MIC,"[5]; Streptococcus pneumoniae, AB21",1 µg/mL
same,MIC,"[6]; Streptococcus pneumoniae, 1275",1 µg/mL
same,MIC,[7]; read-out: MIC,> 16 µg/mL
same,MIC,[8]; [40],1 µg/mL
same,MIC,"[9]; Streptococcus pneumoniae, 1294.",1 µg/mL
same,MIC,"[10]; Staphylococcus aureus, ATCC29213",2 µg/mL
same,MIC,"[11]; Staphylococcus aureus, MRSA",2 µg/mL
same,MIC,"[12]; Streptococcus pneumoniae, AB25",1 µg/mL
same,MIC,"[13]; Enterococcus durans, 581",1 µg/mL
same,MIC,"[14]; Staphylococcus aureus, MRSA",1 µg/mL
same,MIC,"[15]; Streptococcus pneumoniae, AB30",1 µg/mL
same,MIC,"[16]; Streptococcus pneumoniae, AB16",1 µg/mL
same,MIC,"[17]; Streptococcus pneumoniae, 217",1 µg/mL
same,MIC,"[18]; Streptococcus pyogenes, 20361",1 µg/mL
same,MIC,"[19]; Staphylococcus epidermidis, ATCC12228",< 0.5 µg/mL
same,MIC,"[20]; Streptococcus pneumoniae, AB22",1 µg/mL
same,MIC,"[21]; Enterococcus faecalis, 29212",2 µg/mL
same,MIC,"[22]; Streptococcus pneumoniae, AB34",2 µg/mL
same,MIC,"[23]; Moraxella, CATA.M2",4 µg/mL
same,MIC,"[24]; Staphylococcus epidermidis, 823",< 0.5 µg/mL
same,MIC,"[25]; Streptococcus pneumoniae, AB10",0.25 µg/mL
same,MIC,"[26]; Escherichia coli, 25922",> 16 µg/mL
same,MIC,"[27]; Streptococcus pneumoniae, AB2",0.25 µg/mL
same,MIC,"[28]; Serratia marcescens, 12999",> 16 µg/mL
same,MIC,"[29]; Pseudomonas aeruginosa, ATCC27853",> 16 µg/mL
same,MIC,"[30]; Streptococcus pneumoniae, AB4",0.25 µg/mL
same,MIC,"[31]; Streptococcus pneumoniae, ATCC6303",1 µg/mL
same,MIC,[32]; [40],1 µg/mL
